The values below come from patent US9670203B2 (BeiGene, LTD., priority 2013, dated 2017).

Each structure is given as a SMILES string. Read-outs that look alike come from different tables or passages of the source.

In one assay the target is B-Raf (V600E) (Homo sapiens (Human), UniProt P15056, V600E). The assay is described as follows: Raf IC50 assay, time-resolved fluorescence energy transfer, B-Raf (V600E). In kind it is biochemical. The settings on record: 0.1 mM ATP; read-out: IC50 (nM) B_Raf^V600E.
Another assay deals with C-Raf (Y340D/Y341D) (Homo sapiens (Human), UniProt P04049, Y340D/Y341D). The assay is described as follows: Raf IC50 assay, time-resolved fluorescence energy transfer, C-Raf (Y340D/Y341D). The settings on record: 0.1 mM ATP. In kind it is biochemical.
Another assay concerns the target wild type B-Raf (Homo sapiens (Human), UniProt P15056). The assay is described as follows: WT B-Raf IC50 assay, time-resolved fluorescence energy transfer. In kind it is biochemical. The procedure: The IC50 for each compound was calculated by non linear regression by Graphpad Prism software.
The subject of a further assay is A375. The assay is described as follows: Anti-proliferative activity EC50 assay (CellTiter-Glo) in A375. In kind it is cell-based. The following applies: Homo sapiens, A-375, 72 h; 3-day exposure; read-out: Cell Proliferation EC50 (nM) A375. The procedure: The growth-inhibitory activity of compounds in A375 and p61-A375, was determined using CellTiter-Glo luminescent cell viability assay (Promega). The 2,000 cells were seeded per well of a 96-well plate to ensure logarithmic growth could occur over the 3 days treatment period. Cells were left to attach for 16 hours, cells were treated in duplicate with a 10-point dilution series. Following a 3-day exposure to compounds disclosed herein, a volume of CellTiter-Glo reagent equal to the volume of cell culture medium present in each well was added. Mixture was mixed on an orbital shaker for 2 minutes to allow cell lysis, followed by 10 minutes incubation at room temperature to allow stabilization of luminescent signal, which corresponded to quantitation of ATP and thus the quantitation of metabolically active cells. Luminescent signal was measured using Pherastar FS reader (BMG Labtech).
EC50 values for growth inhibition were calculated by fitting dose-dependent data to the four-parameter logistic model using GraphPad Prism software.
In general terms: ATP-based viability assays read luminescence as a measure of living cells.

Where [1] appears, read: 2.5 mM ATP, read-out: IC50 (nM) B-Raf^WT 2.5 mM ATP.
[2] abbreviates: Km ATP (2.9 μM ATP), read-out: IC50 (nM) B-Raf^WT Km ATP.

A word on the IC50: it is the concentration that gives 50% inhibition.

C-Raf (Y340D/Y341D), sequence (P04049 whole entry Y340D/Y341D): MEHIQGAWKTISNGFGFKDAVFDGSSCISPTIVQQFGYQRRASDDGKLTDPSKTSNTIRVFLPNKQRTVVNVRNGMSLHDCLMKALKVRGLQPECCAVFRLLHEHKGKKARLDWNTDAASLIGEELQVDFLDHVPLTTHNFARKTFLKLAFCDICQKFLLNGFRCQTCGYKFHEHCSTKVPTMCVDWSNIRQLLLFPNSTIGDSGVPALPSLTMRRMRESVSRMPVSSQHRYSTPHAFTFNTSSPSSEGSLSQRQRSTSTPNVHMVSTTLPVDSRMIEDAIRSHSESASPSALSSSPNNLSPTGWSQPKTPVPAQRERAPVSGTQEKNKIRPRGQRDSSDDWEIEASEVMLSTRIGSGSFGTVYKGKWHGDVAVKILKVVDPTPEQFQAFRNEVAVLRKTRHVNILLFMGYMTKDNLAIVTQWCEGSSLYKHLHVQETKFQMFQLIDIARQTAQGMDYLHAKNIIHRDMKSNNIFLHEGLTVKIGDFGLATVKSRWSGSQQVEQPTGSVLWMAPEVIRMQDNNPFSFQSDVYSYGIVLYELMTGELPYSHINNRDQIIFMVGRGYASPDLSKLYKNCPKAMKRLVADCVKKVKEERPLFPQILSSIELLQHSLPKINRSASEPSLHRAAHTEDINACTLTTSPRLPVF
wild type B-Raf, sequence (P15056 whole entry): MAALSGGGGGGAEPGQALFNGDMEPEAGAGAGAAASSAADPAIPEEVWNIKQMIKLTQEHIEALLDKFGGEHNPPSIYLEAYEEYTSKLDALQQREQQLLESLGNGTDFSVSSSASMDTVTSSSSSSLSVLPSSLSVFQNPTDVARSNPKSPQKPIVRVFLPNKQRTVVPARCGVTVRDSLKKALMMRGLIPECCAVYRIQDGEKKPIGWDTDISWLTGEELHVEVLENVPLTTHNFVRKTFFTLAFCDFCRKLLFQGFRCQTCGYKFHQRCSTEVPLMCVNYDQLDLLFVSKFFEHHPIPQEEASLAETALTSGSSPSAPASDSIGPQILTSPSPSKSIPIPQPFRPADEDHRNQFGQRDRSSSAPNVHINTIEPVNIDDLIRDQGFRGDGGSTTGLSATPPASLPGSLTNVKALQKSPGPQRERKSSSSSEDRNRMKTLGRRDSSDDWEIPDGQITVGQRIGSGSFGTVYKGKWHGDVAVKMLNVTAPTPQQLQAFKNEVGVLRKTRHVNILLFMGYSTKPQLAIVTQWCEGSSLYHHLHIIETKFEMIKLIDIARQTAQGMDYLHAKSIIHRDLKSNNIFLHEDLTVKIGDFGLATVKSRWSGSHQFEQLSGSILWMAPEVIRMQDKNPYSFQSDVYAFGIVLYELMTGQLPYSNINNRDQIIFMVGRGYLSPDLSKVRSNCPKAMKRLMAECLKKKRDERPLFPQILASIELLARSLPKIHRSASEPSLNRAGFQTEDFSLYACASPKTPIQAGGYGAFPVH
B-Raf (V600E), sequence (P15056 whole entry V600E): as the sequence (P15056 whole entry) above, with V600E counted along it

Consider `O=C1CCc2c(Oc3ccc4c(c3)[C@H]3[C@H](NC(=O)Nc5cccc(C(F)(F)F)c5)[C@H]3O4)ccnc2N1` [Compound 1.1, 1-((1S,1aS,6bS)-5-((7-oxo-5,6,7,8-tetrahydro-1,8-naphthyridin-4-yl)oxy)-1a,6b-dihydro-1H-cyclopropa[b]benzofuran-1-yl)-3-(3-(trifluoromethyl)phenyl)urea], for which the IC50 on B-Raf (V600E) is 8.3 nM; on C-Raf (Y340D/Y341D), 1.6 nM; at wild type B-Raf (setting [1]), 43 nM; on wild type B-Raf (setting [2]), 13 nM. Besides, the EC50 in the assay with A375 was 109 nM.
Taken in the same sequence, the figures for `O=C1CCc2c(Oc3ccc4c(c3)[C@H]3[C@H](NC(=O)Nc5cc(C(F)(F)F)ccn5)[C@H]3O4)ccnc2N1` [Compound 1.2] were 4 nM, 0.77 nM, 18 nM, 6.3 nM and 122 nM.
With `COc1ccc(CNC(=O)N[C@@H]2[C@H]3Oc4ccc(Oc5ccnc6c5CCC(=O)N6)cc4[C@@H]23)cc1` [Compound 1.3], the figures for the IC50 at B-Raf (V600E) and on C-Raf (Y340D/Y341D) were 40 nM and 0.54 nM, respectively.
In the case of `COc1cccc(NC(=O)N[C@@H]2[C@H]3Oc4ccc(Oc5ccnc6c5CCC(=O)N6)cc4[C@@H]23)c1Cl` [Compound 1.6], the IC50 on B-Raf (V600E) amounted to 1.9 nM; at C-Raf (Y340D/Y341D), 0.33 nM; on wild type B-Raf (setting [1]), 11 nM; at wild type B-Raf (setting [2]), 4.5 nM. Also, in the assay on A375, the EC50 was 229 nM.
As to `Cc1cc(Cl)ccc1NC(=O)N[C@@H]1[C@H]2Oc3ccc(Oc4ccnc5c4CCC(=O)N5)cc3[C@@H]12` [Compound 1.7], the IC50 is 1.1 nM on B-Raf (V600E), 0.35 nM against C-Raf (Y340D/Y341D) and 2.6 nM at wild type B-Raf (setting [2]).
Take `O=C1CCc2c(Oc3ccc4c(c3)[C@H]3[C@H](NC(=O)Nc5ccc(Cl)cc5C(F)(F)F)[C@H]3O4)ccnc2N1` [Compound 1.9]: the 50% inhibitory concentration (IC50) at B-Raf (V600E) is 9.5 nM; against C-Raf (Y340D/Y341D) it was 1.6 nM; on wild type B-Raf (setting [2]), 21 nM.
Take `O=C1CCc2c(Oc3ccc4c(c3)[C@H]3[C@H](NC(=O)Nc5cc(F)cc(C(F)(F)F)c5)[C@H]3O4)ccnc2N1` [Compound 1.11]: the IC50 on B-Raf (V600E) is 5.5 nM; against C-Raf (Y340D/Y341D), 1.8 nM; on wild type B-Raf (setting [1]), 110 nM; on wild type B-Raf (setting [2]), 30 nM. Further, the EC50 in the assay on A375 came to 147 nM.
Taken in the same sequence, the figures for `O=C1CCc2c(Oc3ccc4c(c3)[C@H]3[C@H](NC(=O)Nc5cccc(C(F)(F)F)c5F)[C@H]3O4)ccnc2N1` [Compound 1.12] were 4.7 nM, 1.1 nM, 86 nM, 23 nM and 106 nM.
For the molecule `C#Cc1cccc(NC(=O)N[C@@H]2[C@H]3Oc4ccc(Oc5ccnc6c5CCC(=O)N6)cc4[C@@H]23)c1` [Compound 1.14], the IC50 at B-Raf (V600E) came to 1.9 nM; on wild type B-Raf (setting [1]), 8.5 nM; on wild type B-Raf (setting [2]) it was 2.8 nM. Further, the EC50 in the assay with A375 was determined as 127 nM.
As for `O=C1CCc2c(Oc3ccc4c(c3)[C@H]3[C@H](NC(=O)Nc5ccc(C(F)(F)F)cc5F)[C@H]3O4)ccnc2N1` [Compound 1.20], the IC50 stood at 13 nM at B-Raf (V600E), 2.7 nM against C-Raf (Y340D/Y341D) and 23 nM at wild type B-Raf (setting [2]).
For the molecule `O=C1CCc2c(Oc3ccc4c(c3)[C@H]3[C@H](NC(=O)Nc5cc(C(F)(F)F)ccc5F)[C@H]3O4)ccnc2N1` [Compound 1.33], the values for the IC50 at B-Raf (V600E), at wild type B-Raf (setting [1]) and at wild type B-Raf (setting [2]) were 9.5 nM, 75 nM and 19 nM, respectively. Besides, in the assay on A375, the EC50 is 137 nM.
On to `O=C1CCc2c(Oc3ccc4c(c3)[C@H]3[C@H](NC(=O)Nc5c(F)cc(F)cc5F)[C@H]3O4)ccnc2N1` [Compound 1.40], for which the IC50 is 1.6 nM at B-Raf (V600E), 0.2 nM against C-Raf (Y340D/Y341D) and 2 nM on wild type B-Raf (setting [2]).
As to `O=C1CCc2c(Oc3ccc4c(c3)[C@H]3[C@H](NC(=O)Nc5c(F)ccc(F)c5F)[C@H]3O4)ccnc2N1` [Compound 1.48], the IC50 at B-Raf (V600E) was 0.74 nM; on wild type B-Raf (setting [1]), 7.9 nM; at wild type B-Raf (setting [2]) it was 2.5 nM. Also, in the assay on A375, the EC50 was found to be 686 nM.
For `CC(C)(N)c1cc(NC(=O)N[C@@H]2[C@H]3Oc4ccc(Oc5ccnc6c5CCC(=O)N6)cc4[C@@H]23)cc(C(F)(F)F)c1` [Compound 1.70, 1-(3-(2-aminopropan-2-yl)-5-(trifluoromethyl)phenyl)-3-((1S,1aS,6bS)-5-((7-oxo-5,6,7,8-tetrahydro-1,8-naphthyridin-4-yl)oxy)-1a,6b-dihydro-1H-cyclopropa[b]benzofuran-1-yl)urea], the figures for the IC50 at B-Raf (V600E), on C-Raf (Y340D/Y341D) and at wild type B-Raf (setting [2]) were 7.4 nM, 0.81 nM and 15 nM, respectively.
In the case of `O=C1CCc2c(Oc3ccc4c(c3)[C@@H]3[C@@H](NC(=O)Nc5cccc(C(F)(F)F)c5)[C@@H]3O4)ccnc2N1` [Compound 1.71, 1-((1R,1aR,6bR)-5-((7-oxo-5,6,7,8-tetrahydro-1,8-naphthyridin-4-yl)oxy)-1a,6b-dihydro-1H-cyclopropa[b]benzofuran-1-yl)-3-(3-(trifluoromethyl)phenyl)urea], the IC50 turned out to be 3 nM at B-Raf (V600E) and 0.34 nM at C-Raf (Y340D/Y341D).
For `CC(C)(C)NC(=O)N[C@@H]1[C@H]2Oc3ccc(Oc4ccnc5c4CCC(=O)N5)cc3[C@@H]12` [Compound 1.77], the IC50 at B-Raf (V600E) was determined as 4.5 nM. Further, the EC50 in the assay with A375 stood at 4540 nM.
For `CCCCCCNC(=O)N[C@@H]1[C@H]2Oc3ccc(Oc4ccnc5c4CCC(=O)N5)cc3[C@@H]12` [Compound 1.78] the same measures were 0.72 nM and 1900 nM.
`O=C1CCc2c(Oc3ccc4c(c3)[C@H]3[C@H](NC(=O)N[C@H]5CCCc6ccccc65)[C@H]3O4)ccnc2N1` [Compound 1.79]: the IC50 was 3.2 nM on B-Raf (V600E) and 0.39 nM against C-Raf (Y340D/Y341D). Besides, the EC50 in the assay on A375 is 222 nM.
For `O=C1CCc2c(Oc3ccc4c(c3)[C@H]3[C@H](NC(=O)N[C@@H]5CCCc6ccccc65)[C@H]3O4)ccnc2N1` [Compound 1.80] the same measures were 4 nM, 0.5 nM and 132 nM.
`O=C1CCc2c(Oc3ccc4c(c3)[C@H]3[C@H](NC(=O)N[C@H]5CCc6ccccc65)[C@H]3O4)ccnc2N1` [Compound 1.81]: the IC50 on B-Raf (V600E) stood at 2.7 nM. Also, the EC50 with A375 was determined as 159 nM.
Taken in the same sequence, the figures for `O=C1CCc2c(Oc3ccc4c(c3)[C@H]3[C@H](NC(=O)N[C@@H]5CCc6ccccc65)[C@H]3O4)ccnc2N1` [Compound 1.82] were 2.4 nM and 867 nM.
For `CC(C)(C)CNC(=O)N[C@@H]1[C@H]2Oc3ccc(Oc4ccnc5c4CCC(=O)N5)cc3[C@@H]12` [Compound 1.83] the same measures were 3 nM and 291 nM.
For the molecule `CCCCCCCCNC(=O)N[C@@H]1[C@H]2Oc3ccc(Oc4ccnc5c4CCC(=O)N5)cc3[C@@H]12` [Compound 1.84], at B-Raf (V600E), the half-inhibitory concentration (IC50) amounted to 12 nM. In addition, the EC50 in the assay on A375 was found to be 4330 nM.
For the molecule `O=C(Nc1cc(F)c(F)cc1F)N[C@@H]1[C@H]2Oc3ccc(Oc4ccnc5c4COC(=O)N5)cc3[C@@H]12` [Compound 2.3, 1-((1S,1aS,6bS)-5-((2-oxo-2,4-dihydro-1H-pyrido[2,3-d][1,3]oxazin-5-yl)oxy)-1a,6b-dihydro-1H-cyclopropa[b]benzofuran-1-yl)-3-(2,4,5-trifluorophenyl)urea], the IC50 on B-Raf (V600E) amounted to 2.6 nM. Further, the EC50 in the assay on A375 was 190 nM.
Taken in the same sequence, the figures for `O=C1NCc2c(Oc3ccc4c(c3)[C@H]3[C@H](NC(=O)Nc5ccc(F)c(C(F)(F)F)c5)[C@H]3O4)ccnc2N1` [Compound 2.4, 1-(4-fluoro-3-(trifluoromethyl)phenyl)-3-((1S,1aS,6bS)-5-((2-oxo-1,2,3,4-tetrahydropyrido[2,3-d]pyrimidin-5-yl)oxy)-1a,6b-dihydro-1H-cyclopropa[b]benzofuran-1-yl)urea] were 11 nM and 374 nM.
On to `O=C1NCc2c(Oc3ccc4c(c3)[C@H]3[C@H](NC(=O)Nc5cc(F)c(F)cc5F)[C@H]3O4)ccnc2N1` [Compound 2.5], for which the IC50 at B-Raf (V600E) stood at 2.3 nM. Further, the EC50 with A375 came to 769 nM.
Take `CNC(=O)c1cc(Oc2ccc3c(c2)[C@H]2[C@H](NC(=O)Nc4cccc(C(F)(F)F)c4)[C@H]2O3)ccn1` [Compound 2.6, N-methyl-4-(((1S,1aS,6bS)-1-(3-(3-(trifluoromethyl)phenyl)ureido)-1a,6b-dihydro-1H-cyclopropa[b]benzofuran-5-yl)oxy)picolinamide]: the IC50 at B-Raf (V600E) was 26 nM. Moreover, the EC50 in the assay with A375 came to 624 nM.
Taken in the same sequence, the figures for `CNC(=O)c1cc(Oc2ccc3c(c2)[C@H]2[C@H](NC(=O)Nc4ccc(F)c(C(F)(F)F)c4)[C@H]2O3)ccn1` [Compound 2.7] were 33 nM and 464 nM.
As for `CNC(=O)c1cc(Oc2ccc3c(c2)[C@H]2[C@H](NC(=O)Nc4cc(F)c(F)cc4F)[C@H]2O3)ccn1` [Compound 2.8], the IC50 on B-Raf (V600E) worked out at 13 nM; on C-Raf (Y340D/Y341D), 3 nM; on wild type B-Raf (setting [2]), 17 nM.
As for `Nc1cc(Oc2ccc3c(c2)[C@H]2[C@H](NC(=O)Nc4cc(F)c(F)cc4F)[C@H]2O3)ccn1` [Compound 2.15], the IC50 on B-Raf (V600E) is 18 nM. In addition, the EC50 in the assay with A375 was determined as 10000 nM.
